Laboratory results from PMC11527646, “Pharmacological blockade of the mast cell MRGPRX2 receptor supports investigation of its relevance in skin disorders” (Frontiers in Immunology, 2024).
Entries after “also recorded” stand apart in the source; their conditions may differ. Read-outs that look alike come from different tables or passages of the source.

Experiments:
MRGPRX2 = biological target: T1, MRGPRX2 (Homo sapiens, UniProt Q96LB1); assay: LAD2 mast cell degranulation (β-hexosaminidase release), MRGPRX2 ligand-mediated; format: cell-based; parameters: human mast cells expressing endogenous MRGPRX2; endogenous in cells; […]; conditions: for IC50: mean ± SEM; for EC50: agonist mode, no mast cell activator, up to 50 μM tested, read-out: Activation of LAD-2 Cells EC50; for Kb: read-out: pA2 (apparent antagonist affinity, Schild analysis) (converted); for Nature of antagonism: vs Substance P concentration response curves
T1 sequence (Q96LB1 1-330): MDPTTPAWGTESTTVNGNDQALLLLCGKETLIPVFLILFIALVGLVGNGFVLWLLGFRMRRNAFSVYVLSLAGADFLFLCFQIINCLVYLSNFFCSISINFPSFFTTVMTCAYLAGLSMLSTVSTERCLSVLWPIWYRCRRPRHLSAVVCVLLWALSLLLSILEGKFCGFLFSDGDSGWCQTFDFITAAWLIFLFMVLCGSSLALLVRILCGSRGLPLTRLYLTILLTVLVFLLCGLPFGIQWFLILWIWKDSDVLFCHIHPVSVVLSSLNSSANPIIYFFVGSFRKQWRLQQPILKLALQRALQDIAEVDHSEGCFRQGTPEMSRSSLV
Description: Two different in vitro human mast cell systems were studied: (a) a human mast cell line, LAD2, established from a patient with mast cell sarcoma; and (b) mast cells freshly isolated from human skin. MRGPRX2 antagonist IC50 values were determined in the LAD2 mast cell degranulation assay using approximately EC80 concentrations for five different MRGPRX2 activating ligands (see Supplementary Figure 1 ).

[1] = biological target: T2, ß2-Adrenoreceptor (ADRB2) (Homo sapiens, UniProt P07550); assay: GPCR selectivity cellular assay; format: cell-based
T2 construct: expressed in transfected cells
T2 sequence (P07550 whole entry): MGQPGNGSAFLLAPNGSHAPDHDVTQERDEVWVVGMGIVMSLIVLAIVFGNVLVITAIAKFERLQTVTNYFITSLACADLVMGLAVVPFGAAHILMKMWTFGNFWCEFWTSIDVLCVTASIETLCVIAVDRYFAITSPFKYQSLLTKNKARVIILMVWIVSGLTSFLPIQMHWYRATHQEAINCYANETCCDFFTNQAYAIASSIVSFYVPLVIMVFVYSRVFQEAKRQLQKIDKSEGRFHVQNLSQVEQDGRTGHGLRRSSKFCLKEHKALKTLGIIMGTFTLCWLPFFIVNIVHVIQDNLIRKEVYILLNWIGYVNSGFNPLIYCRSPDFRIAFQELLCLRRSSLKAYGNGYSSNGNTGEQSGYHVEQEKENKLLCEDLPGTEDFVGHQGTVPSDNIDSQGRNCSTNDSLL
Description: (§1) tagonists, with little activity detected on other GPCRs. Antagonist and/or agonist activities of the two compounds were determined in cellular assays for 20 human G-protein coupled receptors (GPCR) beside MRGPRX2. Recombinant over-expression systems in mammalian cells were used for all assays listed in this table. […]
(§2) reported as ‘>’ the highest compound concentration allowed in that assay.
(§3) GPCR Target Name Gene symbol Mode of Activity Compound-A Compound-B […]
(§4) Agonist Activity (EC50 ) or Antagonist Activity (IC50 ), nM […]

[2] = biological target: T3, a2C-Adrenoreceptor (ADRA2C) (Homo sapiens, UniProt P18825); assay: GPCR selectivity cellular assay; format: cell-based; conditions: Agonism; read-out: Agonist Activity (EC50)
T3 construct: expressed in transfected cells
T3 sequence (P18825 whole entry): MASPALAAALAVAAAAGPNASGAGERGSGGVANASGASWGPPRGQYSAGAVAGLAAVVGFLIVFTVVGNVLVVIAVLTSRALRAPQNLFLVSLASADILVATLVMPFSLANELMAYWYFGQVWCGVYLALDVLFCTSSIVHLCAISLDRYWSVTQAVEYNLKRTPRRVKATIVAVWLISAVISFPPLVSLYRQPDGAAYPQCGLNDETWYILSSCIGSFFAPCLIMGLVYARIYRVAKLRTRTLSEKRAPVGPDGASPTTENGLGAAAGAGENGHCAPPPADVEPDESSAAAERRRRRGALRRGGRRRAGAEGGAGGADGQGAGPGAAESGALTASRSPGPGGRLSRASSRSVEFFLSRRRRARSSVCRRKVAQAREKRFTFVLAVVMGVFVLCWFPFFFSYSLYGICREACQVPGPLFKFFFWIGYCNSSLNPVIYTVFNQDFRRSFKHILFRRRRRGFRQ
Description: as §1, §2, §3, §4

D2 receptor (DRD2) = biological target: T4, D2 receptor (DRD2) (Homo sapiens, UniProt P14416); assay: GPCR selectivity cellular assay; format: cell-based
T4 construct: expressed in transfected cells
T4 sequence (P14416 whole entry): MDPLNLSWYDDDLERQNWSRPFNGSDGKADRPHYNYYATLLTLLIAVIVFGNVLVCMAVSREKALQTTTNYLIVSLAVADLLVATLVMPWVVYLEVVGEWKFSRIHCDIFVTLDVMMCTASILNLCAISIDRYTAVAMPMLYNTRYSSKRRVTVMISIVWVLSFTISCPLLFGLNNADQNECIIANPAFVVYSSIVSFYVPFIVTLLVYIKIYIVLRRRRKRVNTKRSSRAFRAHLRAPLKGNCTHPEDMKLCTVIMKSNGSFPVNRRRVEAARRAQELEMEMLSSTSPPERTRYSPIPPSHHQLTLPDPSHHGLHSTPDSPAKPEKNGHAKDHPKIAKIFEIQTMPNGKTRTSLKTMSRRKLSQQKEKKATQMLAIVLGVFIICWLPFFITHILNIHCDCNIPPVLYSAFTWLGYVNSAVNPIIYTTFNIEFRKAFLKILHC
Description: as §1, §2, §3, §4

H3 receptor (HRH3) = biological target: T5, H3 receptor (HRH3) (Homo sapiens, UniProt Q9Y5N1); assay: GPCR selectivity cellular assay; format: cell-based; conditions: Antagonism; read-out: Antagonist Activity (IC50)
T5 construct: expressed in transfected cells
T5 sequence (Q9Y5N1 whole entry): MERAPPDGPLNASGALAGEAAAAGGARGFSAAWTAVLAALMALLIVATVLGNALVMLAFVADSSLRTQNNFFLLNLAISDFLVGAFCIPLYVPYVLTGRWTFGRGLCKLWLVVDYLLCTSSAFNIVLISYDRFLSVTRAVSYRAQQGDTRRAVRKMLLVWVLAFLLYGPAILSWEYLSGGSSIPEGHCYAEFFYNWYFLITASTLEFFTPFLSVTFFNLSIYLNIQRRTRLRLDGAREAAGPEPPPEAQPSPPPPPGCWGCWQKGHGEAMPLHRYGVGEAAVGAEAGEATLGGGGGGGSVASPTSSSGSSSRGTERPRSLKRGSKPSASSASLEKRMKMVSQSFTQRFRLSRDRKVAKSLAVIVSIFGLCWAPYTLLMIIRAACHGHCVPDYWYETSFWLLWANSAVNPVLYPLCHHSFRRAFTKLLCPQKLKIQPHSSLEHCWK
Description: as §1, §2, §3, §4

µ-Receptor (OPRM1) = µ-Receptor (OPRM1) (Homo sapiens, UniProt P35372); assay: GPCR selectivity cellular assay; format: cell-based; conditions: Agonism; read-out: Agonist Activity (EC50)
Chain of µ-Receptor (OPRM1) (P35372 whole entry): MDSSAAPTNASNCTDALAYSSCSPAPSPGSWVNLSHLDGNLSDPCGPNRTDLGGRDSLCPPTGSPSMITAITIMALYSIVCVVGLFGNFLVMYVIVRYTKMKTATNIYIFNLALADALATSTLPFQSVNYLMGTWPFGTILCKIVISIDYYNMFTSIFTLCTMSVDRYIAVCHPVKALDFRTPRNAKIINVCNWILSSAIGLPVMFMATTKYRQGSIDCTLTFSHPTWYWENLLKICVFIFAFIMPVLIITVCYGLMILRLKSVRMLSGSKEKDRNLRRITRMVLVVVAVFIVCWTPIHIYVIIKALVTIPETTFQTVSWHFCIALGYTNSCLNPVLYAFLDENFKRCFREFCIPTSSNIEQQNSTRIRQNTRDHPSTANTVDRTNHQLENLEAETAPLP
Description: as §1, §2, §3, §4

[3] = test system: human MRGPRX2 knock-in mice; assay: Cpd 48/80-induced itch (scratching) behavioral model; format: in vivo, mouse; conditions: 3 mg/kg PO, Cpd 48/80 intradermal 3 h post-dose, scratching over 30 min
Text: The generation and initial characterization of human MRGPRX2 knock-in (KI) mice has been previously reported ([15]). All experimental protocols were approved by the Animal Care and Use Committee at the Johns Hopkins University School of Medicine and studies conducted according to GSK’s Policy on the Care, Welfare and Treatment of Animals. All mice used for this study were 2- to 4-month old males and females (20–30 g) and randomized on body weight and sex using three groups of 18 animals per group.
On the day of the experiment, animals were allowed to acclimatize to the test chamber for 10 min prior to injection. Mice received a single PO dose of Compound B (or vehicle) as a suspension in 1% methylcellulose at a dose level of 3 mg/kg (dose volume 10 mL/kg). Scratching behavior was monitored over 30 min following a single intra-dermal injection of 10 μL of Cpd 48/80 (10 μg/mL) or vehicle (saline) at 3 h post-dose of the antagonist. A bout of scratching was defined as a hindpaw directed continuous scratching movement at the injection site. The scratching behavior scorer was blinded to treatment. […]
Figure 6 Oral treatment with the potent and selective MRGPRX2 antagonist, Compound B (3 mg/kg), blocks Cpd 48/80–induced itch response using human MRGPRX2 knock-in mice. […] Average ± SD blood-free concentration of antagonist measured at end of “itch” observation period was 19 ± 16 nM Compound B.

[4] = Mast Cell Activator: Compound 48/80 at approx. EC80, read-out: Inhibition of Ligand Mediated LAD-2 Cell Activation and Degranulation IC50
[5] = Agonism, read-out: Agonist Activity (EC50)
[6] = Antagonism, read-out: Antagonist Activity (IC50)

Work on `CC1(C)C(C(=O)Nc2ccccn2)C1(C)C` [Compound A] yielded an IC50 (MRGPRX2; Inhibition of Ligand Mediated LAD-2 Cell Activation and Degranulation IC50, Mast Cell Activator: Cortistatin-14 at approx. EC80) of 22.8 nM, an IC50 (MRGPRX2; Inhibition of Ligand Mediated LAD-2 Cell Activation and Degranulation IC50, Mast Cell Activator: PACAP-27 at approx. EC80) of 61.2 ± 14.3 nM and an IC50 (MRGPRX2; Inhibition of Ligand Mediated LAD-2 Cell Activation and Degranulation IC50, Mast Cell Activator: PAMP-12 at approx. EC80) of 63.3 ± 6.2 nM. The IC50 (MRGPRX2; Inhibition of Ligand Mediated LAD-2 Cell Activation and Degranulation IC50, Mast Cell Activator: Substance P (1 μM, approx. EC80)) was 32.4 nM, the IC50 (MRGPRX2; [4]) was 232 ± 26 nM and the EC50 (MRGPRX2) was over 50000 nM. For the same molecule, the Kb (MRGPRX2) was 25.7 nM and the Nature of antagonism (MRGPRX2) was “partly surmountable”.
Work on `C[C@@H](C(=O)Nc1cnc(Oc2ccc(F)cc2F)cn1)N1CCC(F)(F)[C@@H](c2cc[n+]([O-])cc2)C1` [Compound B] yielded an EC50 [1, 5] of over 100000 nM, an IC50 [1, 6] of over 100000 nM and an EC50 [2] of over 100000 nM. The EC50 (D2 receptor (DRD2); [5]) was over 100000 nM, the IC50 (D2 receptor (DRD2); [6]) was over 100000 nM and the IC50 (H3 receptor (HRH3)) was over 50000 nM. The EC50 (µ-Receptor (OPRM1)) was over 100000 nM, the “Effect on Substance P maximal response” value (MRGPRX2; 7.6 nM antagonist) was “dampen SP’s maximal response” and the “Effect on degranulation response to highest Substance P concentration” value (MRGPRX2; 20 nM antagonist, Substance P 50 μM) was “abolish the degranulation response”. For the same molecule, the IC50 (MRGPRX2; [4]) was 4 ± 0.3 nM, the IC50 (MRGPRX2; Mast Cell Activator: Cortistatin-14 at approx. EC80, read-out: Inhibition of Ligand Mediated LAD-2 Cell Activation and Degranulation IC50) was 1 nM and the IC50 (MRGPRX2; Mast Cell Activator: PACAP-27 at approx. EC80, read-out: Inhibition of Ligand Mediated LAD-2 Cell Activation and Degranulation IC50) was 1.8 ± 0.1 nM. For the same molecule, the IC50 (MRGPRX2; Mast Cell Activator: PAMP-12 at approx. EC80, read-out: Inhibition of Ligand Mediated LAD-2 Cell Activation and Degranulation IC50) was 2.6 ± 0.1 nM, the IC50 (MRGPRX2; Mast Cell Activator: Substance P (1 μM, approx. EC80), read-out: Inhibition of Ligand Mediated LAD-2 Cell Activation and Degranulation IC50) was 1.8 ± 0.1 nM and the EC50 (MRGPRX2) was over 50000 nM. The Kb (MRGPRX2) was 0.891 nM, the Nature of antagonism (MRGPRX2) was “insurmountable” and the “Effect on Cpd 48/80-induced itch response” value [3] was “significant blockade; also recorded: completely block”.
